Results published in ChEMBL document CHEMBL5506035, “Discovery of Glutamate Carboxypeptidase III Ligands to Compete the Uptake of [177Lu]Lu-PSMA-617 in Healthy Organs” (J Med Chem, 2024).
Active and inactive are the calls of the source. The rule behind the calls is not given here.

Columns and labels:
[1] = molecular target: T1, Glutamate carboxypeptidase 2 (Homo sapiens, UniProt Q04609); experiment: Displacement of [177Lu]LU-PSMA-617 from human recombinant PSMA assessed as dissociation constant by fluorescence polarization assay
Target sequence in this assay (Q04609 whole entry): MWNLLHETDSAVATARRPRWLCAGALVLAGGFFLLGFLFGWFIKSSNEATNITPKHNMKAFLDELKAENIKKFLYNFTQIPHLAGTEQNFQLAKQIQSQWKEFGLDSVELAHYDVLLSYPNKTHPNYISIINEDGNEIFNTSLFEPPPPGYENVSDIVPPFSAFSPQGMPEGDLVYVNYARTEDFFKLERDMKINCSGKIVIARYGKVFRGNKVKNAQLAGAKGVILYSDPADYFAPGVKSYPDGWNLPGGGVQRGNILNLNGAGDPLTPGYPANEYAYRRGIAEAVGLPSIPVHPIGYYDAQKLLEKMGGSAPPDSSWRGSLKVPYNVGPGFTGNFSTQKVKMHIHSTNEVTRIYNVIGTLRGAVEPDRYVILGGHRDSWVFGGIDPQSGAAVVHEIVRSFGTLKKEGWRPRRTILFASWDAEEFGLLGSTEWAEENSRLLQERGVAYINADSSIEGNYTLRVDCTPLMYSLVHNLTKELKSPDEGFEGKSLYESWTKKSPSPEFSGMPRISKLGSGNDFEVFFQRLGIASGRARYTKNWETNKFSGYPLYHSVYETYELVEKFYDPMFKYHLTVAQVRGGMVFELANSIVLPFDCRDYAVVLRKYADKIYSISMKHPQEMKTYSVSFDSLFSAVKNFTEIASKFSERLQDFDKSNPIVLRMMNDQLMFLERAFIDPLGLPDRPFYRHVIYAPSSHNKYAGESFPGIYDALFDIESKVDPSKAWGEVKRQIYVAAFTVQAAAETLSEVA

[2] = molecular target: T2, N-acetylated-alpha-linked acidic dipeptidase 2 (Homo sapiens, UniProt Q9Y3Q0); experiment: Displacement of [177Lu]LU-PSMA-617 from human recombinant GCPIII assessed as dissociation constant by fluorescence polarization assay
Target sequence in this assay (Q9Y3Q0 whole entry): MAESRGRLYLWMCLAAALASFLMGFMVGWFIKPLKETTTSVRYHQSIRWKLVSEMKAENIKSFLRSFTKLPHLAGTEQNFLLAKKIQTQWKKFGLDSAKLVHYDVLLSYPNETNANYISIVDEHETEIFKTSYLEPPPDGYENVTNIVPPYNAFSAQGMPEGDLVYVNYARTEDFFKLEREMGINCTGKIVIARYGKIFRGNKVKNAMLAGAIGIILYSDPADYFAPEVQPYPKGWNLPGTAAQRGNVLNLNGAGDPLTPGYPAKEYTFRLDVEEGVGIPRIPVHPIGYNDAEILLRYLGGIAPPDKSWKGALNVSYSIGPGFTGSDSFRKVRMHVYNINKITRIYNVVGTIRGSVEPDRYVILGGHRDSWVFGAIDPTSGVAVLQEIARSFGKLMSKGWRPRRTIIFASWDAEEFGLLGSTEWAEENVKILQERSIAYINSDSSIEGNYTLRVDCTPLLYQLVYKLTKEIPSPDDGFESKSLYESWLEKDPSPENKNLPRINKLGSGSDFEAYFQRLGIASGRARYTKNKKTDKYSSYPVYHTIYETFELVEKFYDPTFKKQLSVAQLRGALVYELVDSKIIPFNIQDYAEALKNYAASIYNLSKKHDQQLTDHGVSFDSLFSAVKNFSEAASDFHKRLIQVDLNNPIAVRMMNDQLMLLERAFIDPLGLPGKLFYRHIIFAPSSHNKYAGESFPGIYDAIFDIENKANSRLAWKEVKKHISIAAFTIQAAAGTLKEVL

[3] = molecular target: T1, Glutamate carboxypeptidase 2; experiment: Binding affinity to human recombinant PSMA assessed as dissociation constant by fluorescence polarization assay
Target sequence in this assay (Q04609 whole entry): as the sequence (Q04609 whole entry) above

[4] = molecular target: T2, N-acetylated-alpha-linked acidic dipeptidase 2; experiment: Binding affinity to human recombinant GCPIII assessed as dissociation constant by fluorescence polarization assay
Target sequence in this assay (Q9Y3Q0 whole entry): as the sequence (Q9Y3Q0 whole entry) above

[5] = molecular target: T1, Glutamate carboxypeptidase 2; experiment: Displacement of [177Lu]LU-PSMA-617 from human PSMA at 10 to 100 uM incubated for 15 mins by manual size-exclusion chromatography analysis; conditions: dose 10-100 µM
Target sequence in this assay (Q04609 whole entry, looked up): as the sequence (Q04609 whole entry) above

Homo sapiens = species: Homo sapiens; experiment: Ratio of Kd for binding affinity to human recombinant GCPIII assessed as dissociation constant by fluorescence polarization assay to Kd for binding affinity to human recombinant PSMA assessed as dissociation constant by fluorescence polarization assay
[6] = molecular target: T1, Glutamate carboxypeptidase 2; experiment: Displacement of [177Lu]LU-PSMA-617 from PSMA in human salivary gland assessed as residual activity at 10 uM incubated for 1 hr by autoradiography analysis relative to control; assay type: tissue-based
Target sequence in this assay (Q04609 whole entry, looked up): as the sequence (Q04609 whole entry) above

[7] = molecular target: T2, N-acetylated-alpha-linked acidic dipeptidase 2; experiment: Displacement of [177Lu]LU-PSMA-617 from human […] at 10 to 100 uM incubated for 15 mins by manual size-exclusion chromatography analysis; conditions: dose 10-100 µM
Target sequence in this assay (Q9Y3Q0 whole entry, looked up): as the sequence (Q9Y3Q0 whole entry) above

[8] = molecular target: T1, Glutamate carboxypeptidase 2; experiment: Displacement of [177Lu]LU-PSMA-617 from PSMA in human HT-1080 cells by autoradiography analysis; assay type: cell-based; conditions: dose 0.6-50 µM
Target sequence in this assay (Q04609 whole entry, looked up): as the sequence (Q04609 whole entry) above

Compound | Kd [1] [nM] | Kd [2] [nM] | Kd [3] [nM] | Kd [4] [nM] | further results
O=C1OC2(c3ccc(O)cc3Oc3cc(O)ccc32)c2ccc(NC(=S)NCCCC[C@H](NC(=O)[C@@H]3C[C@@H](Cc4c[nH]nn4)CN3C(=O)c3cnoc3C3CC3)C(=O)O)cc21 |  |  | > 1000 | 106 | 
Cc1[nH]nnc1C(=O)N[C@@H]1C[C@@H](C(=O)N[C@@H](CCCCNC(=S)Nc2ccc3c(c2)C(=O)OC32c3ccc(O)cc3Oc3cc(O)ccc32)C(=O)O)N(C(=O)c2cnoc2C2CC2)C1 |  |  |  | > 500 | 
Cn1cc(C(=O)N[C@@H]2C[C@@H](C(=O)N[C@@H](CCCCNC(=S)Nc3ccc4c(c3)C(=O)OC43c4ccc(O)cc4Oc4cc(O)ccc43)C(=O)O)N(C(=O)c3cnoc3C3CC3)C2)nn1 |  |  |  | > 500 | 
O=C(O)CC[C@H](NC(=O)N[C@@H](CCCCNC(=O)[C@H](Cc1ccc2ccccc2c1)NC(=O)[C@H]1CC[C@H](CNC(=O)CN2CCN(CC(=O)O)CCN(CC(=O)O)CCN(CC(=O)O)CC2)CC1)C(=O)O)C(=O)O |  |  |  |  | Activity [5]: inactive
O=C(N[C@@H]1C[C@@H](C(=O)O)N(C(=O)c2cnoc2C2CC2)C1)c1c[nH]nn1 | > 20000 | 300 |  |  | 
O=C(N[C@@H](CCCCNC(=S)Nc1ccc2c(c1)C(=O)OC21c2ccc(O)cc2Oc2cc(O)ccc21)C(=O)O)c1c[nH]nn1 |  |  |  | 87 | Ratio (Homo sapiens): 20
CC(C)c1nocc1C(=O)N1C[C@H](NC(=O)c2c[nH]nn2)C[C@H]1C(=O)N[C@@H](CCCCNC(=S)Nc1ccc2c(c1)C(=O)OC21c2ccc(O)cc2Oc2cc(O)ccc21)C(=O)O |  |  | > 1000 | 30 | 
O=C(N[C@@H]1C[C@@H](C(=O)N[C@@H](CCCCNC(=S)Nc2ccc3c(c2)C(=O)OC32c3ccc(O)cc3Oc3cc(O)ccc32)C(=O)O)N(C(=O)c2cnoc2C2CC2)C1)c1nc[nH]n1 |  |  |  | > 300 | 
O=C(N[C@@H]1C[C@@H](C(=O)NCCOCCOCCNC(=S)Nc2ccc3c(c2)C(=O)OC32c3ccc(O)cc3Oc3cc(O)ccc32)N(C(=O)c2cnoc2C2CC2)C1)c1c[nH]nn1 |  |  | 310 | 24 | 
O=C(N[C@@H]1C[C@@H](C(=O)N[C@@H](CCCCNC(=S)Nc2ccc3c(c2)C(=O)OC32c3ccc(O)cc3Oc3cc(O)ccc32)C(=O)O)N(C(=O)c2cnoc2C2CC2)C1)c1c[nH]cn1 |  |  |  | > 300 | 
O=C1OC2(c3ccc(O)cc3Oc3cc(O)ccc32)c2ccc(NC(=S)NCCCC[C@H](NC(=O)[C@@H]3C[C@@H](n4cc(-c5c[nH]nn5)nn4)CN3C(=O)c3cnoc3C3CC3)C(=O)O)cc21 |  |  |  | > 300 | 
CC(C)c1oncc1C(=O)N1C[C@H](NC(=O)c2c[nH]nn2)C[C@H]1C(=O)N[C@@H](CCCCNC(=S)Nc1ccc2c(c1)C(=O)OC21c2ccc(O)cc2Oc2cc(O)ccc21)C(=O)O |  |  | 178 | 4.3 | 
O=C(N[C@@H]1C[C@@H](C(=O)N[C@H](CCCCNC(=S)Nc2ccc3c(c2)C(=O)OC32c3ccc(O)cc3Oc3cc(O)ccc32)C(=O)O)N(C(=O)c2cnoc2C2CC2)C1)c1c[nH]nn1 |  |  | > 1000 | 23 | 
O=C(N[C@@H]1C[C@@H](C(=O)N[C@@H](CCCCNC(=S)Nc2ccc3c(c2)C(=O)OC32c3ccc(O)cc3Oc3cc(O)ccc32)C(=O)O)N(C(=O)c2cnoc2-c2ccccc2)C1)c1c[nH]nn1 |  |  | 23 | 6.4 | 
O=C(N[C@@H]1C[C@@H](C(=O)NCCCCCCNC(=S)Nc2ccc3c(c2)C(=O)OC32c3ccc(O)cc3Oc3cc(O)ccc32)N(C(=O)c2cnoc2C2CC2)C1)c1c[nH]nn1 |  |  | 48 | 7 | 
O=C(Cn1ccnn1)N[C@@H]1C[C@@H](C(=O)N[C@@H](CCCCNC(=S)Nc2ccc3c(c2)C(=O)OC32c3ccc(O)cc3Oc3cc(O)ccc32)C(=O)O)N(C(=O)c2cnoc2C2CC2)C1 |  |  |  | > 500 | 
O=C(CCOCCOCCOCCOCCOCCOCCOCCOCCOCCOCCC(=O)NCCCC[C@H](NC(=O)[C@@H]1C[C@@H](NC(=O)c2cnn[nH]2)CN1C(=O)c1cnoc1C1CC1)C(=O)O)NCCCC[C@H](NC(=O)[C@@H]1C[C@@H](NC(=O)c2cnn[nH]2)CN1C(=O)c1cnoc1C1CC1)C(=O)O | > 20000 | 505 |  |  | 
O=C(NCCCCNC(=O)NCCCC[C@H](NC(=O)[C@@H]1C[C@@H](NC(=O)c2c[nH]nn2)CN1C(=O)c1cnoc1C1CC1)C(=O)O)NCCCC[C@H](NC(=O)[C@@H]1C[C@@H](NC(=O)c2c[nH]nn2)CN1C(=O)c1cnoc1C1CC1)C(=O)O | 13000 | 53 |  |  | 
Cn1nncc1C(=O)N[C@@H]1C[C@@H](C(=O)N[C@@H](CCCCNC(=S)Nc2ccc3c(c2)C(=O)OC32c3ccc(O)cc3Oc3cc(O)ccc32)C(=O)O)N(C(=O)c2cnoc2C2CC2)C1 |  |  |  | > 500 | 
CC(=O)N1C[C@H](NC(=O)c2c[nH]nn2)C[C@H]1C(=O)N[C@@H](CCCCNC(=S)Nc1ccc2c(c1)C(=O)OC21c2ccc(O)cc2Oc2cc(O)ccc21)C(=O)O |  |  | > 1000 | 169 | 
O=C(N[C@@H]1C[C@@H](C(=O)N[C@@H](CNC(=S)Nc2ccc3c(c2)C(=O)OC32c3ccc(O)cc3Oc3cc(O)ccc32)C(=O)O)N(C(=O)c2cnoc2C2CC2)C1)c1c[nH]nn1 |  |  | > 1000 | 6.3 | Activity [6]: 44%
COC(=O)[C@H](CCCCNC(=S)Nc1ccc2c(c1)C(=O)OC21c2ccc(O)cc2Oc2cc(O)ccc21)NC(=O)[C@@H]1C[C@@H](NC(=O)c2c[nH]nn2)CN1C(=O)c1cnoc1C1CC1 |  |  | 332 | 12 | 
COc1ccc(C2=[N+]3C(=Cc4c(C)c(CCC(=O)NCCCC[C@H](NC(=O)[C@@H]5C[C@@H](NC(=O)c6c[nH]nn6)CN5C(=O)c5cnoc5C5CC5)C(=O)O)c(C)n4[B-]3(F)F)C=C2)cc1 |  |  | > 1000 | 15 | 
CCCCCCNC(=S)Nc1ccc2c(c1)C(=O)OC21c2ccc(O)cc2Oc2cc(O)ccc21 |  |  |  |  | Activity [6]: 92%
N=c1ccc2c(-c3ccc(C(=O)NCCCC[C@H](NC(=O)[C@@H]4C[C@@H](NC(=O)c5c[nH]nn5)CN4C(=O)c4cnoc4C4CC4)C(=O)O)cc3C(=O)O)c3ccc(N)c(S(=O)(=O)O)c3oc-2c1S(=O)(=O)O |  |  | > 1000 | 4.5 | 
O=C(N[C@@H]1C[C@@H](C(=O)N[C@@H](CNC(=S)Nc2ccc3c(c2)C(=O)OC32c3ccc(O)cc3Oc3cc(O)ccc32)C(=O)O)N(C(=O)c2c[nH]nn2)C1)c1c[nH]nn1 |  |  | > 1000 | 1.7 | Activity [7]: Active; Activity [6]: 14%; Activity [8]: Dose-Dependent Effect
O=C(N[C@@H]1C[C@@H](C(=O)N[C@@H](CCCCNC(=S)Nc2ccc3c(c2)C(=O)OC32c3ccc(O)cc3Oc3cc(O)ccc32)C(=O)O)N(C(=O)c2c[nH]nn2)C1)c1c[nH]nn1 |  |  | > 1000 | 4.8 | 
CC(=O)N[C@@H]1C[C@@H](C(=O)N[C@@H](CCCCNC(=S)Nc2ccc3c(c2)C(=O)OC32c3ccc(O)cc3Oc3cc(O)ccc32)C(=O)O)N(C(=O)c2cnoc2C2CC2)C1 |  |  |  | > 2600 | 

More lines, main results first:

Kd [1] [nM] | Kd [2] [nM] | Kd [3] [nM] | Kd [4] [nM] | Compound | further results
> 20000 | 41 |  |  | CC(=O)NCCCC[C@H](NC(=O)[C@@H]1C[C@@H](NC(=O)c2c[nH]nn2)CN1C(=O)c1cnoc1C1CC1)C(=O)O | 
231 | 1.5 |  |  | O=C(NC[C@H](NC(=O)[C@@H]1C[C@@H](NC(=O)c2c[nH]nn2)CN1C(=O)c1c[nH]nn1)C(=O)O)c1c[nH]nn1 | 
> 20000 | 3200 |  |  | CC(=O)NCCCC[C@H](NC(=O)[C@@H]1C[C@@H](NC(=O)c2c[nH]nn2)CN1C(=O)c1cnoc1C1CC1)C(=O)Nc1c[nH]nn1 | 
> 20000 | 12 |  |  | O=C(NCCCC[C@H](NC(=O)[C@@H]1C[C@@H](NC(=O)c2c[nH]nn2)CN1C(=O)c1cnoc1C1CC1)C(=O)O)c1c[nH]nn1 | 
15000 | 6400 |  |  | CC(=O)NCCCC[C@H](NC(=O)[C@@H]1C[C@@H](NC(=O)c2c[nH]nn2)CN1C(=O)c1c[nH]nn1)C(=O)O | 
> 20000 | 67 |  |  | CC(=O)NC[C@H](NC(=O)[C@@H]1C[C@@H](NC(=O)c2c[nH]nn2)CN1C(=O)c1c[nH]nn1)C(=O)O | 
> 20000 | 10000 |  |  | NC[C@H](NC(=O)[C@@H]1C[C@@H](NC(=O)c2c[nH]nn2)CN1C(=O)c1c[nH]nn1)C(=O)O | 
> 20000 | 17000 |  |  | NCCCC[C@H](NC(=O)[C@@H]1C[C@@H](NC(=O)c2c[nH]nn2)CN1C(=O)c1c[nH]nn1)C(=O)O | 
> 20000 | 12 |  |  | O=C(NCCCC[C@H](NC(=O)[C@@H]1C[C@@H](NC(=O)c2c[nH]nn2)CN1C(=O)c1c[nH]nn1)C(=O)O)c1c[nH]nn1 | 
> 20000 | 2000 |  |  | CC(=O)NC[C@H](NC(=O)[C@@H]1C[C@@H](NC(=O)c2c[nH]nn2)CN1C(=O)c1cnoc1C1CC1)C(=O)O | 
> 20000 | 338 |  |  | O=C(NCCCC[C@H](NC(=O)[C@@H]1C[C@@H](NC(=O)c2c[nH]nn2)CN1C(=O)c1c[nH]nn1)C(=O)Nc1c[nH]nn1)c1c[nH]nn1 | 
> 20000 | 13000 |  |  | NCCCC[C@H](NC(=O)[C@@H]1C[C@@H](NC(=O)c2c[nH]nn2)CN1C(=O)c1cnoc1C1CC1)C(=O)O | 
1300 | 8 |  |  | O=C(NC[C@H](NC(=O)[C@@H]1C[C@@H](NC(=O)c2c[nH]nn2)CN1C(=O)c1cnoc1C1CC1)C(=O)O)c1c[nH]nn1 | 
